In the supplement of paper PMC11208160:

Assay: recombinant UMI read abundance after kanamycin selection (control-corrected) (log10(CPM+1)); higher = more efficient recombination; extreme values may be limits of the assay; sequences stand for … in AGTGCAGAGAAAATCGGCCAGTTTTCTCTGCCTGCAGTCCGCATGCCGTGGGACCCCTTGGGTTCTAACCTGTTGCCTAGATTTATGCAGCGGACTGCCTTTCTCCCAAAGTGATAAACCGG…AGGTTGGTTTCACT; site = the 11-nt donor
Outline: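 Each donor and donor-binding-loop pair was tracked by a 12-nt UMI on a plasmid carrying a promoterless kanamycin gene. With a second plasmid supplying a fixed target and T7-inducible IS621 bridge recombinase, the pool was plated in Escherichia coli on IPTG (0.07 mM) plus kanamycin or unselected. Sequencing of recombinant UMIs across the donor–target junction gave counts expressed as log10(CPM+1) after replicate averaging and control-derived scaling.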

In order of falling “recombinant UMI read abundance (log10)” value:
1. GCATAGTCATGGACCGGTTTTCCCGGTAATCCGTATTTGTT (site GCATAGTCTAA)  3.29
2. GCATACTCATGGACCGGTTTTCCCGGTAATCCGTATTTGCA (site GCATACTCTTG)  2.96
3. GCATACTCATGGACCGGTTTTCCCGGTAATCCGTATTTGCA (site CCATACTCTTG)  2.9
4. GCCGTATCATGGACCGGTTTTCCCGGTAATCCGTATTTGCA (site ACAGTATCTTG)  2.87
5. GCCACGTCATGGACCGGTTTTCCCGGTAATCCGTATTTGCA (site GCCACGTCTTG)  2.76
6. GCATACTCATGGACCGGTTTTCCCGGTAATCCGTATTTGCA (site TCATACTCTTG)  2.61
7. GCAGTTTCATGGACCGGTTTTCCCGGTAATCCGTATTTGCA (site GCAGTTTCTTG)  2.59
8. GCATACTCATGGACCGGTTTTCCCGGTAATCCGTATTTGCA (site ACATACTCTTG)  2.41
9. GCCCGTTCATGGACCGGTTTTCCCGGTAATCCGTATTTGAG (site GCCCGTTCTCT)  2.23
10. GCAGTGACATGGACCGGTTTTCCCGGTAATCCGTATTTGCG (site GCAGTGACTCG)  2.18
11. GCATCGGCATGGACCGGTTTTCCCGGTAATCCGTATTTGAC (site GCATCGGCTGT)  2.09
12. GCCCACACATGGACCGGTTTTCCCGGTAATCCGTATTTGTA (site GCCCACACTTA)  1.78
13. GCCCTTTCATGGACCGGTTTTCCCGGTAATCCGTATTTGCT (site GCCCTTTCTAG)  1.67
14. GCCAACGCATGGACCGGTTTTCCCGGTAATCCGTATTTGAA (site GCCAACGCTTT)  1.63
15. GCCAAGGCATGGACCGGTTTTCCCGGTAATCCGTATTTGAG (site GCCAAGGCTCT)  1.49
16. GCCCACACATGGACCGGTTTTCCCGGTAATCCGTATTTGTA (site CCCCACACTTA)  1.37
17. GCCACGCCATGGACCGGTTTTCCCGGTAATCCGTATTTGCA (site GCCACGCCTTG)  1.36
18. GCCCACACATGGACCGGTTTTCCCGGTAATCCGTATTTGTA (site ACCCACACTTA)  1.08
19. GCCACGCCATGGACCGGTTTTCCCGGTAATCCGTATTTGTC (site GCCACGCCTGA)  1.03
20. GCCCACACATGGACCGGTTTTCCCGGTAATCCGTATTTGTA (site TCCCACACTTA)  1.02
21. GCCCACGCATGGACCGGTTTTCCCGGTAATCCGTATTTGGA (site GCCCACGCTTC)  0.94
22. GCAGGCCCATGGACCGGTTTTCCCGGTAATCCGTATTTGCC (site GCAGGCCCTGG)  0.86
23. GCCGATGCATGGACCGGTTTTCCCGGTAATCCGTATTTGGC (site GCCGATGCTGC)  0.846
24. GCCCGAGCATGGACCGGTTTTCCCGGTAATCCGTATTTGGA (site GCCCGAGCTTC)  0.73
25. GCCCGCTCATGGACCGGTTTTCCCGGTAATCCGTATTTGAG (site GCCCGCTCTCT)  0.704
26. GCCGCGCCATGGACCGGTTTTCCCGGTAATCCGTATTTGTA (site GCCGCGCCTTA)  0.234
27. GCATGCCCATGGACCGGTTTTCCCGGTAATCCGTATTTGAT (site GCCTGCCCTAT)  0.226
28. GCATGCCCATGGACCGGTTTTCCCGGTAATCCGTATTTGAT (site GCATGCCCTAT)  0.197
29. GCCGCGCCATGGACCGGTTTTCCCGGTAATCCGTATTTGTA (site GCCTCGCCTTA)  0.18
30. GCCCGCACATGGACCGGTTTTCCCGGTAATCCGTATTTGTG (site GCCCGCACTCA)  0.0672
31. GCCCACCCATGGACCGGTTTTCCCGGTAATCCGTATTTGTT (site GCCCACCCTAA)  0.051
32. GCCCTCCCATGGACCGGTTTTCCCGGTAATCCGTATTTGTG (site GCCCTCCCTCA)  0.0428
33. GCCCACCCATGGACCGGTTTTCCCGGTAATCCGTATTTGTT (site GGCCACCCTAA)  0.0315
34. GCCGAACCATGGACCGGTTTTCCCGGTAATCCGTATTTGGG (site GCCGAACCTCC)  0.0289
35. GCCACGCCATGGACCGGTTTTCCCGGTAATCCGTATTTGCA (site GCCACGCCTTC)  0.0237
36. GCCACGCCATGGACCGGTTTTCCCGGTAATCCGTATTTGAA (site GCCACGCCTTC)  0.0229
37. GCCACGCCATGGACCGGTTTTCCCGGTAATCCGTATTTGTG (site GCCACGCCTCA)  0.0225
38. GCCCACCCATGGACCGGTTTTCCCGGTAATCCGTATTTGTT (site GACCACCCTAA)  0.0217
39. GCCACGCCATGGACCGGTTTTCCCGGTAATCCGTATTTGCA (site GCCACGCCTTT)  0.0202
40. GCATGGCCATGGACCGGTTTTCCCGGTAATCCGTATTTGCA (site GTATGGCCTTG)  0.0194
41. GCATGGCCATGGACCGGTTTTCCCGGTAATCCGTATTTGCA (site GGATGGCCTTG)  0.0185
42. GCCACGCCATGGACCGGTTTTCCCGGTAATCCGTATTTGAA (site GCCACGCCTTT)  0.0176
43. GCATGCCCATGGACCGGTTTTCCCGGTAATCCGTATTTGAT (site GCGTGCCCTAT)  0.0164
44. GCCACGCCATGGACCGGTTTTCCCGGTAATCCGTATTTGTC (site GCCACGCCTCA)  0.015
45. GCCGCTCCATGGACCGGTTTTCCCGGTAATCCGTATTTGGT (site GCCGCTCCTAC)  0.0147
46. GCCACGCCATGGACCGGTTTTCCCGGTAATCCGTATTTGGA (site GCCACGCCTTC)  0.0144
47. GCATGCCCATGGACCGGTTTTCCCGGTAATCCGTATTTGAT (site GCTTGCCCTAT)  0.0139
48. GCCCACCCATGGACCGGTTTTCCCGGTAATCCGTATTTGTT (site GTCCACCCTAA)  0.0135
49. GCCACGCCATGGACCGGTTTTCCCGGTAATCCGTATTTGTC (site GCCACGCCTTA)  0.0128
50. GCCACGCCATGGACCGGTTTTCCCGGTAATCCGTATTTGTG (site GCCACGCCTAA)  0.0114
51. GCCACGCCATGGACCGGTTTTCCCGGTAATCCGTATTTGTG (site GCCACGCCTTA)  0.0106
52. GCCGCGCCATGGACCGGTTTTCCCGGTAATCCGTATTTGTA (site GCCACGCCTTA)  0.00924
53. GCCACGCCATGGACCGGTTTTCCCGGTAATCCGTATTTGGA (site GCCACGCCTTT)  0.00923
54. GCCACGCCATGGACCGGTTTTCCCGGTAATCCGTATTTGAA (site GCCACGCCTTA)  0.00688
55. GCCACGCCATGGACCGGTTTTCCCGGTAATCCGTATTTGGA (site GCCACGCCTTA)  0.00593
56. GCCGCGCCATGGACCGGTTTTCCCGGTAATCCGTATTTGTA (site GCCCCGCCTTA)  0.00531
57. GCATGGCCATGGACCGGTTTTCCCGGTAATCCGTATTTGCA (site GAATGGCCTTG)  0
58. GCATGGCCATGGACCGGTTTTCCCGGTAATCCGTATTTGCA (site GCATGGCCTTG)  0
59. GCATTACCATGGACCGGTTTTCCCGGTAATCCGTATTTGTC (site GCATTACCTGA)  0
60. GCCACGCCATGGACCGGTTTTCCCGGTAATCCGTATTTGAA (site GCCACGCCTTG)  0
61. GCCACGCCATGGACCGGTTTTCCCGGTAATCCGTATTTGCA (site GCCACGCCTTA)  0
62. GCCACGCCATGGACCGGTTTTCCCGGTAATCCGTATTTGGA (site GCCACGCCTTG)  0
63. GCCACGCCATGGACCGGTTTTCCCGGTAATCCGTATTTGTC (site GCCACGCCTAA)  0
64. GCCACGCCATGGACCGGTTTTCCCGGTAATCCGTATTTGTG (site GCCACGCCTGA)  0
65. GCCGGTCCATGGACCGGTTTTCCCGGTAATCCGTATTTGCA (site ACCGGTCCTTG)  0
66. GCCGGTCCATGGACCGGTTTTCCCGGTAATCCGTATTTGCA (site CCCGGTCCTTG)  0
67. GCCGGTCCATGGACCGGTTTTCCCGGTAATCCGTATTTGCA (site GCCGGTCCTTG)  0
68. GCCGGTCCATGGACCGGTTTTCCCGGTAATCCGTATTTGCA (site TCCGGTCCTTG)  0
